These results are taken from ChEMBL document CHEMBL1136688, “Synthesis and SAR of aminoalkoxy-biaryl-4-carboxamides: novel and selective histamine H3 receptor antagonists” (Bioorg Med Chem Lett, 2003).

Data set [1] in a line: Volume distribution after oral administration (2.5 mg/kg) in monkey was determined. Format: ADME, organism-based. Conditions: cercopithecidae, in vivo.
Data set [2] addresses T1, Alpha-2C adrenergic receptor (Homo sapiens, UniProt P18825).
T1 sequence (P18825 whole entry): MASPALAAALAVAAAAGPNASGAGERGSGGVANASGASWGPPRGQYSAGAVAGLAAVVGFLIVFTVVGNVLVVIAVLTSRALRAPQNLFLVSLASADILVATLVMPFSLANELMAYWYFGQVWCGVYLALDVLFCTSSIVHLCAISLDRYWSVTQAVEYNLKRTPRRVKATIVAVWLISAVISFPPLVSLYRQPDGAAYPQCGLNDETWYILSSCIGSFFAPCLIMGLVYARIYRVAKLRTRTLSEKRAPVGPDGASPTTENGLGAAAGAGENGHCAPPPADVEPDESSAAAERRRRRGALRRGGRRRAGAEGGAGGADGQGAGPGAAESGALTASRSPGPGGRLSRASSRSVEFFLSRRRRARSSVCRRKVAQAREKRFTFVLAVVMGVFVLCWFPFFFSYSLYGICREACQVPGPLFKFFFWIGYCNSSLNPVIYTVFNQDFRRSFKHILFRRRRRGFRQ
The experiment in a line: Binding affinity towards human Alpha-2C adrenergic receptor.

Data set [3] has as its target Sodium-dependent noradrenaline transporter (Homo sapiens, UniProt P23975). The experiment in a line: Binding affinity towards human UPTK-NE transporter.
The target in a further data set is Histamine H1 receptor (Homo sapiens, UniProt P35367). The experiment in a line: Binding affinity towards human histaminergic (H1) receptor.
Data set [4] can be described thus: Bioavailability after oral administration (2.5 mg/kg) in dog was determined. Format: ADME, organism-based, Canis lupus familiaris. The conditions noted are these: in vivo.
The target in data set [5] is T2, Muscarinic acetylcholine receptor M2 (Homo sapiens, UniProt P08172).
T2 sequence (P08172 whole entry): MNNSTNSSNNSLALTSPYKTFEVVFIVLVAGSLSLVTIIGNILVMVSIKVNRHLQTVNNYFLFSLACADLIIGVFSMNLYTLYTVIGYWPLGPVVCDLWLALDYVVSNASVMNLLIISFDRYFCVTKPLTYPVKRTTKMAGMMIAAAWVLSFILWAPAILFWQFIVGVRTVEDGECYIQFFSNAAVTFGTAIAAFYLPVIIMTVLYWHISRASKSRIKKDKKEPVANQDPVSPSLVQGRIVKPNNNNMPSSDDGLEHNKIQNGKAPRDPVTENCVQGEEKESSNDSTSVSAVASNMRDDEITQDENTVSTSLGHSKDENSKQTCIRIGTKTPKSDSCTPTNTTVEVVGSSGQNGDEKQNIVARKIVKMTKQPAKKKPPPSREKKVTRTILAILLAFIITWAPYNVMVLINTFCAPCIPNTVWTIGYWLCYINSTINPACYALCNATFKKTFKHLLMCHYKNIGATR
The experiment in a line: Binding affinity towards human muscarinic M2 receptor.

In data set [6] the target is Sodium-dependent serotonin transporter (Homo sapiens, UniProt P31645). In words: Binding affinity towards human UPTK-Serotonin transporter.
Data set [7] has as its target T3, Histamine H3 receptor (Homo sapiens, UniProt Q9Y5N1). In words: Binding affinity for human recombinant H3 receptor.
The target of the next data set is T4, D(4) dopamine receptor (Homo sapiens, UniProt P21917).
T4 sequence (P21917 whole entry): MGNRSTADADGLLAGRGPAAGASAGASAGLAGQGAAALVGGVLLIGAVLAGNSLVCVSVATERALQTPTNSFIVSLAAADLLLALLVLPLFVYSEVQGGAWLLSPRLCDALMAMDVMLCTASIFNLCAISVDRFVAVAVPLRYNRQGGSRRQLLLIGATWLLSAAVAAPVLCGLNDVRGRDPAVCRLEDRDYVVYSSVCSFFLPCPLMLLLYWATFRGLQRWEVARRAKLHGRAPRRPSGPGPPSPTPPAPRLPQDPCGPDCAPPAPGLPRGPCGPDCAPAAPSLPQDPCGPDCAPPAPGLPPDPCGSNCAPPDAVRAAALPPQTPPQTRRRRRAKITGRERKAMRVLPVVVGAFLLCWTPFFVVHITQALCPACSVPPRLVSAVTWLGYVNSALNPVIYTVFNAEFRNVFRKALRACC
In words: Binding affinity towards human D4.2 receptor.

Data set [8] has as its target T3, Histamine H3 receptor. The experiment in a line: Affinity to bind with human cloned H3 receptor using radioligand binding assay. Conditions: read-out: pA2 (converted).
A further data set concerns the target Histamine H2 receptor (Homo sapiens, UniProt P25021). In words: Binding affinity towards human histaminergic (H2) receptor.
Data set [9] has as its target Histamine H3 receptor (Rattus norvegicus) (UniProt Q9QYN8). The conditions noted are these: Brain.
The nature of data set [10]: Plasma clearance after oral administration (2.5 mg/kg) in monkey was determined. Conditions: cercopithecidae, read-out: Clp (converted). Format: ADME, organism-based.
Data set [11] can be described thus: Bioavailability after oral administration (2.5 mg/kg) in monkey was determined. Format: ADME, organism-based. Conditions: cercopithecidae, in vivo.
The species named for another data set is Cavia porcellus. The experiment in a line: Compound was tested for blocked alpha-methylhistamine-induced inhibition of electrical field-stimulation induced twitch response in guinea pig ileum. Format: functional. Conditions: read-out: pA2 (converted).
Data set [12] addresses T5, Muscarinic acetylcholine receptor M1 (Homo sapiens, UniProt P11229).
T5 sequence (P11229 whole entry): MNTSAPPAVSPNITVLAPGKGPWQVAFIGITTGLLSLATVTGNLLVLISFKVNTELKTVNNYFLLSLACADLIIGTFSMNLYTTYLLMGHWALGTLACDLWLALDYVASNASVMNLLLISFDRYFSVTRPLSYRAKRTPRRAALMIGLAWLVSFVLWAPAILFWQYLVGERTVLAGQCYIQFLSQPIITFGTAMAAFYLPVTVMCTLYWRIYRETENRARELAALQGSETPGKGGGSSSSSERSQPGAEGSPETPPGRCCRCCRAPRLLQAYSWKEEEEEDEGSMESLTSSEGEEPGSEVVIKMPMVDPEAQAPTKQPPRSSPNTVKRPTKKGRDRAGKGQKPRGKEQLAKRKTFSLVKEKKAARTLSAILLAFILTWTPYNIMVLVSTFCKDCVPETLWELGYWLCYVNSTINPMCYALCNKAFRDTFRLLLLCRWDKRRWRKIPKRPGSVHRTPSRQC
The experiment in a line: Binding affinity towards human muscarinic M1 receptor.

Data set [13] addresses Muscarinic acetylcholine receptor M3 (Homo sapiens, UniProt P20309). In words: Binding affinity towards human muscarinic M3 receptor.
Data set [14] can be described thus: Plasma clearance after oral administration (2.5 mg/kg) in dog was determined. Type of data set: ADME, organism-based, Canis lupus familiaris. Conditions: read-out: Clp (converted).
A short description of data set [15]: Half life period after oral administration (2.5 mg/kg) in dog was determined. Format: ADME, organism-based, Canis lupus familiaris. Conditions: in vivo.
The nature of data set [16]: The peak blood concentration after 5 hr administration (2.5 mg/kg) in dog was determined. Type of data set: ADME, organism-based, Canis lupus familiaris. Set-up: dose 2.5 mg/kg.
The target of data set [17] is Sodium-dependent dopamine transporter (Homo sapiens, UniProt Q01959). In words: Binding affinity towards human UPTK-DA transporter.
For another data set, the target named is Histamine H4 receptor (Homo sapiens, UniProt Q9H3N8). In words: Binding affinity towards human histaminergic (H4) receptor.
The nature of data set [18]: The peak plasma concentration after 5 hr administration (2.5 mg/kg) in monkey was determined. Format: ADME, organism-based. Set-up: dose 2.5 mg/kg. Conditions: cercopithecidae.
A short description of data set [19]: Half life period after oral administration (2.5 mg/kg) in monkey was determined. Type of data set: ADME, organism-based. Conditions: cercopithecidae, in vivo.

T3 sequence (Q9Y5N1 whole entry): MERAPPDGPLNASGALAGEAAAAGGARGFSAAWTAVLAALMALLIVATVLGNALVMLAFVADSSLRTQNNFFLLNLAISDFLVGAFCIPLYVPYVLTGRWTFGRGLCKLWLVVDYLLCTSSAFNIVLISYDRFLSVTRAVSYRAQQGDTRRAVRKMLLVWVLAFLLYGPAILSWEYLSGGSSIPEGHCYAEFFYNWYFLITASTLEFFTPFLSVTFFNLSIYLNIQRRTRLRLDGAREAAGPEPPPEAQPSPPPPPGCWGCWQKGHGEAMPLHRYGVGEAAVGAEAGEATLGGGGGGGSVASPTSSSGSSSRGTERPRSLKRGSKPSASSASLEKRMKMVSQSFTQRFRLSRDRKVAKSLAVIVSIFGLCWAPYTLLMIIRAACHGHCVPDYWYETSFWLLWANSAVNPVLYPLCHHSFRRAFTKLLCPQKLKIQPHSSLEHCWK
Sequence of Histamine H1 receptor (P35367 whole entry): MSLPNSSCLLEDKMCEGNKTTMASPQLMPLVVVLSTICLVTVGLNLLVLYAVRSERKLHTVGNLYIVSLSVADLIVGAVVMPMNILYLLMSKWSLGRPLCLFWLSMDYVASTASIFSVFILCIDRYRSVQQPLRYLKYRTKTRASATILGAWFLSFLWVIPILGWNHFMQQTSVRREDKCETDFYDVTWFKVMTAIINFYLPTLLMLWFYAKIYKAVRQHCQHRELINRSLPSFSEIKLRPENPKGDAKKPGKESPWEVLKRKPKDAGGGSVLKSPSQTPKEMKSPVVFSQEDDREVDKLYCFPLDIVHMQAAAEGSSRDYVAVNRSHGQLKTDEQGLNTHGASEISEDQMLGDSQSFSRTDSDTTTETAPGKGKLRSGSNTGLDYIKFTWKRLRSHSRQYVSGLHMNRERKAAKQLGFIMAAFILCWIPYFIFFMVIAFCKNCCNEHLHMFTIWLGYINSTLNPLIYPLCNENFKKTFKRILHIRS
Sequence of Histamine H3 receptor (Rattus norvegicus) (Q9QYN8 whole entry): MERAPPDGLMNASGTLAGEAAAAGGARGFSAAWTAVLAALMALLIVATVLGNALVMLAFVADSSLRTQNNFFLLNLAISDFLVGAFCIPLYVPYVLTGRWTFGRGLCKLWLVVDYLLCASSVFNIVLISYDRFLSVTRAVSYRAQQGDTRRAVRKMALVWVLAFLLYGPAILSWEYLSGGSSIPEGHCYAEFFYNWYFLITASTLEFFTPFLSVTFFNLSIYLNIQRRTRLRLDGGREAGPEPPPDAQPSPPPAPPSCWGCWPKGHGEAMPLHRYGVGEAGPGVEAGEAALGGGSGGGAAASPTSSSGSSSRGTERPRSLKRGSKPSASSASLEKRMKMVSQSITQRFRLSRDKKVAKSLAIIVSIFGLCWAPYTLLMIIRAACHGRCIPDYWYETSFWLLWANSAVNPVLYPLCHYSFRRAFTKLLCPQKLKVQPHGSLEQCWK
Sequence of Sodium-dependent serotonin transporter (P31645 whole entry): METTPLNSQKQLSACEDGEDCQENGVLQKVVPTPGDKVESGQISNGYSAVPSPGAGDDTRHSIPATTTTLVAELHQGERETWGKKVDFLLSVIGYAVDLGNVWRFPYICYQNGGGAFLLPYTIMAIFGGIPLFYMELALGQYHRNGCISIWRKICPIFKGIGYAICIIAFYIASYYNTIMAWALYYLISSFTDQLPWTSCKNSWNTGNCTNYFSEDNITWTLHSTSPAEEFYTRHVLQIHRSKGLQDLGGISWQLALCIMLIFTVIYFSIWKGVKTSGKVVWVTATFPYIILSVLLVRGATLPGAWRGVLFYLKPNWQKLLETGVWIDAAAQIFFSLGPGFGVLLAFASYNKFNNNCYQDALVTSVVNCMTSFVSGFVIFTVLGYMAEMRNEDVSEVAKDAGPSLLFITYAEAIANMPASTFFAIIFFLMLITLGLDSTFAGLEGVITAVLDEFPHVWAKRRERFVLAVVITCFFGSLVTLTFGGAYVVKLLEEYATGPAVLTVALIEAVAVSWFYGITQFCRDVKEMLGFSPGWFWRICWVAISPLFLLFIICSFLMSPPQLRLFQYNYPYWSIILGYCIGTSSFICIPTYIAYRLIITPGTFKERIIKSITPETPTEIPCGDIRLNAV
Sequence of Sodium-dependent noradrenaline transporter (P23975 whole entry): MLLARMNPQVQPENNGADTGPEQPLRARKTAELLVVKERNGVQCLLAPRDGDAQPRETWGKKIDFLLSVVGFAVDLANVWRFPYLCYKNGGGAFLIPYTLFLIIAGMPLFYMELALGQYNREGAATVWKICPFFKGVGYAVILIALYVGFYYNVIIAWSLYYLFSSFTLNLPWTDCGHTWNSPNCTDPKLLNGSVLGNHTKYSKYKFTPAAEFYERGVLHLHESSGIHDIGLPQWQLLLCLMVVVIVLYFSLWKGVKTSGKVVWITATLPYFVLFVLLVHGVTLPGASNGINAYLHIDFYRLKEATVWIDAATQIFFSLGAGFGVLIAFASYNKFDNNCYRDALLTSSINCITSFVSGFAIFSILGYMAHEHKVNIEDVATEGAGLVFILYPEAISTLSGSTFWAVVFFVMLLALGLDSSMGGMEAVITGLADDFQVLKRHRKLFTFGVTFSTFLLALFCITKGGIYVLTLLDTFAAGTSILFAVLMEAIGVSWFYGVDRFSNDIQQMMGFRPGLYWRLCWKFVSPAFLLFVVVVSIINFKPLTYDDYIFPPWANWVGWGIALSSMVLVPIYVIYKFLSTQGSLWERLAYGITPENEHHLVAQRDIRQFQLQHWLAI
Sequence of Histamine H4 receptor (Q9H3N8 whole entry): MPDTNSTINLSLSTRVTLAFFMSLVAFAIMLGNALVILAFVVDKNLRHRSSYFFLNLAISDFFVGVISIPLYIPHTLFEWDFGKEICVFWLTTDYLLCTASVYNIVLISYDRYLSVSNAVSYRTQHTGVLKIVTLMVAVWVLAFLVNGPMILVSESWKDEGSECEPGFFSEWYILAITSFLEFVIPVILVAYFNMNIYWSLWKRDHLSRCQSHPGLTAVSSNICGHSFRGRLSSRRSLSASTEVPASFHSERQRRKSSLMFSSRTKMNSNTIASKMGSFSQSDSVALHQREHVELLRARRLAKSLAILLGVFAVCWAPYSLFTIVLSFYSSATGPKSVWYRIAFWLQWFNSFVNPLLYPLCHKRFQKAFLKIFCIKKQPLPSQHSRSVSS
Sequence of Muscarinic acetylcholine receptor M3 (P20309 whole entry): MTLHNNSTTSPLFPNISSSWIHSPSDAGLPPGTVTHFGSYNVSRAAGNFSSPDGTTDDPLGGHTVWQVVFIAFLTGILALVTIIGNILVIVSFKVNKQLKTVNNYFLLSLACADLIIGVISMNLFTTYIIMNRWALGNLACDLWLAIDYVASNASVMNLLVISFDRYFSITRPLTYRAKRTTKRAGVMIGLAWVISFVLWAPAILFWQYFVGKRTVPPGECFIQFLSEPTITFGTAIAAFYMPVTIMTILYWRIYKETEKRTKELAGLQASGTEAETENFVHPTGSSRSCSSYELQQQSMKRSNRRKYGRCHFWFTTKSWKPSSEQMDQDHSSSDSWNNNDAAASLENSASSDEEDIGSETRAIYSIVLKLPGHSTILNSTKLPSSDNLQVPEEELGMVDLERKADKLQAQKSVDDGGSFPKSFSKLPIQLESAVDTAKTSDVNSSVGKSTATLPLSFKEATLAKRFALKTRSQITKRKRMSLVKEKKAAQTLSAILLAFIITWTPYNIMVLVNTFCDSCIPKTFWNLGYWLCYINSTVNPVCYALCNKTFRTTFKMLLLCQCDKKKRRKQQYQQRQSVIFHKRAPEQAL
Sequence of Sodium-dependent dopamine transporter (Q01959 whole entry): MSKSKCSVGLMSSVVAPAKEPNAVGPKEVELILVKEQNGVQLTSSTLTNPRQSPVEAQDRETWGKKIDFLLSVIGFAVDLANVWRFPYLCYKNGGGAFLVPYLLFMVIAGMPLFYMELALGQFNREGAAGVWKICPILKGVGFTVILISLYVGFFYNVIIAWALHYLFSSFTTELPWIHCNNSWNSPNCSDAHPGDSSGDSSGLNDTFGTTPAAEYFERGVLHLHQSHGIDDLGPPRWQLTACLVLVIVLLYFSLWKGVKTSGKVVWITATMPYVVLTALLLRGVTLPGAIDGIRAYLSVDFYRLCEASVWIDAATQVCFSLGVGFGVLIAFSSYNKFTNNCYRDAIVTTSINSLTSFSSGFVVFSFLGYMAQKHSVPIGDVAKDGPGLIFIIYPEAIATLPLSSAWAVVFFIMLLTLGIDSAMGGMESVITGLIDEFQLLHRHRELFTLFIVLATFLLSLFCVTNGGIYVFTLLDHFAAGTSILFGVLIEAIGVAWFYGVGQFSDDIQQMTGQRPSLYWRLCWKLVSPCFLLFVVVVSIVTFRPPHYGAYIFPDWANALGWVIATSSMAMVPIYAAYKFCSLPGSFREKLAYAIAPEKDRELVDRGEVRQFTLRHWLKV
Sequence of Histamine H2 receptor (P25021 whole entry): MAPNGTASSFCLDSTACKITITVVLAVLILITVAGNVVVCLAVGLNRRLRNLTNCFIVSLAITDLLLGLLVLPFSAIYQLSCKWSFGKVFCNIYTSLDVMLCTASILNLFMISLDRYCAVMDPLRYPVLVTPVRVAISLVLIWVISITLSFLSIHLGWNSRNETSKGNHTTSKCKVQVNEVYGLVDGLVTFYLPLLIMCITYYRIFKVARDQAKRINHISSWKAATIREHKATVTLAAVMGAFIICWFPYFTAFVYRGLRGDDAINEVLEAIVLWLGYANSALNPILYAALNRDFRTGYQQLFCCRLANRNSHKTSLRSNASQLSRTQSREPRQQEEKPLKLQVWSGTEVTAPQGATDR

In data set [1], `C[C@H]1CC[C@H](C)N1CCCOc1ccc(-c2ccc(C(=O)N3CCOCC3)cc2)cc1` [A-349,821] displayed a Vbeta of 7.5 L/kg. Besides, the Ki (as a rule, a measure of affinity in units of concentration, obtained from inhibition or displacement) in [2] was 1.62 µM; in [3] it was 9.77 µM; at Histamine H1 receptor it was 2.34 µM; in data set [5], 0.933 µM; in data set [6], 3.55 µM; at Histamine H3 receptor [7], 0.00049 µM. Also, the Ki at D(4) dopamine receptor was 9.77 µM; at Histamine H2 receptor it was 10 µM; in data set [12], 1.62 µM; in data set [13], 1.66 µM; in data set [17], 4.9 µM; on Histamine H4 receptor, 10 µM. For the same compound, the bioavailability (in general, dose-corrected exposure relative to a reference, in per cent) in data set [4] came out at 33%; in data set [11], 78%. Also, the Kb on Histamine H3 receptor [8] was 0.00214 µM; in the data set filed under Cavia porcellus, 0.000339 µM. Further, the pKb (commonly the Kb on a negative log10 scale, so that one unit is a factor of ten) in data set [9] was 9.23. Also, the CL/F is 16.7 mL/min/kg in data set [10] and 10 mL/min/kg in [14]. For the same compound, the half-life (usually how long it takes for the measured level to halve) in [15] was 2.6 h; in [19] it was 5.3 h. The Cmax (usually the peak of the concentration-time curve) in data set [16] is 310 ng/mL; in data set [18] it was 170 ng/mL.
